Among the data in ChEMBL document CHEMBL3792287, “Antiplasmodial phloroglucinol derivatives from Syncarpia glomulifera” (Bioorg Med Chem, 2016) are IC50, Activity and cytotoxicity values, retold here.

Where only a bound is given, the exact number is not on record here.

For one series, the system named is Plasmodium falciparum. As to the kind of experiment: Antiplasmodial activity against Plasmodium falciparum Dd2 incubated under low oxygen conditions after 72 hrs by SYBR green assay. The format is functional, organism-based. The note with it: Dd2, 72 h.
Series [1] concerns HEK293. As to the kind of experiment: Cytotoxicity against HEK293 cells assessed as reduction in cell viability at 100 uM after 24 hrs by resazurin dye based fluorescence assay. The note with it: human, hek293, 24 h.
Series [2] in a line: Cytotoxicity against HEK293 cells assessed as reduction in cell viability at 50 uM after 24 hrs by resazurin dye based fluorescence assay. The note with it: human, read-out: INH. (In general: The colour change of resazurin is a common sign of viable cells or microbes.)
Series [3] has as its system HEK293. The series can be described thus: Cytotoxicity against HEK293 cells assessed as reduction in cell viability up to 3.125 uM after 24 hrs by resazurin dye based fluorescence assay. The note with it: human, hek293, 24 h.

As a reminder, the IC50 is the concentration needed to halve the response being measured. Low readings indicate inhibition by little substance, high ones a need for much substance.

`C=C(C)[C@@H]1CC[C@]2(C(=O)O)CC[C@]3(C)[C@H](CC[C@@H]4[C@@]5(C)CC[C@H](O)C(C)(C)[C@@H]5CC[C@]43C)[C@@H]12` [BETULINIC ACID]: the half-inhibitory concentration (IC50) in the series on Plasmodium falciparum was 3.44 µM.

On to `CCCCCC(=O)c1c(O)cc(O)cc1O`, for which the half-inhibitory concentration (IC50) with Plasmodium falciparum was over 80 µM. On the same count and under the same terms, with `C[C@H]1[C@H](C)CC[C@]2(C(=O)O)CC[C@]3(C)C(=CC[C@@H]4[C@@]5(C)CC[C@H](O)C(C)(C)[C@@H]5CC[C@]43C)[C@H]12` [URSOLIC ACID] the figure was over 40 µM. Take `CC(C)=CCCC1=CCC2(C(=O)C(C)(C)C(=O)C(C)(C)C2=O)C(CC(C)C)C1` (racemic): the Activity entry with HEK293 [1] is given as “Non-toxic”. The compound further registered a half-inhibitory concentration (IC50) in the series with Plasmodium falciparum of 3.81 µM. As to `C[C@@H]1CC[C@H]2[C@@H](C)C(=O)O[C@@H]3O[C@@]4(C)CC[C@@H]1[C@]32OO4` [ARTEMISININ], in the series with Plasmodium falciparum, half-maximal inhibition (IC50) required 0.0062 µM.

`CC(=O)O[C@H]1CC[C@]2(C)[C@H]3CC=C4[C@@H]5[C@@H](C)[C@H](C)CC[C@]5(C(=O)O)CC[C@@]4(C)[C@]3(C)CC[C@H]2C1(C)C` [O-ACETYLURSOLIC ACID] returned an IC50 with Plasmodium falciparum of 12.1 µM. For the compound `CCCCCC(=O)c1c(O)cc(O)c2c1OC1=C(C(=O)C(C)(C)C(=O)C1(C)C)C2CC(C)C` (racemic), in series [2], the cytotoxicity at 24 h, 50 µM stood at 58%. In addition, in the series with HEK293 [3], the Activity result is given as “Non-toxic”. Moreover, the IC50 in the series on Plasmodium falciparum worked out at 0.1 µM.
